Experimental data reported in US20140357633A1, “COMPOUNDS FOR INHIBITING THE INTERACTION OF BCL2 WITH BINDING PARTNERS” (NOVARTIS AG, priority 2011, published 2014).
Several values for one entry are separate records, joined by “and”; a condition that tells them apart may be missing. Equal values may be shown once.

Assays:
[1] = molecular target: BCL-2 (binding to BAD peptide) (Homo sapiens, UniProt P10415); assay: SPR (Biacore) solution inhibition assay, BCL-2 binding to immobilized BAD peptide; settings: biotinylated BAD peptide surface, 56 nM BCL-2, 25° C.; range = high and low IC50 values from multiple experiments; read-out: BCL2_SPR IC50 BAD
Sequence of BCL-2 (binding to BAD peptide) (P10415 whole entry): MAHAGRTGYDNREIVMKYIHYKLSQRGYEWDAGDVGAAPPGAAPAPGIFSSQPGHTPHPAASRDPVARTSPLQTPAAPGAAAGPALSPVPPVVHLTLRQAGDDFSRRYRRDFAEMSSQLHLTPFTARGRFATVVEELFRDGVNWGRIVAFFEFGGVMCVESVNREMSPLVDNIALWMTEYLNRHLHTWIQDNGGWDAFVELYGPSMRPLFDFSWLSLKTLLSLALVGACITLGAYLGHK
Description: (§1) The present method includes utility of a Surface plasmon resonance (SPR)-based biosensor (Biacore™′ GE Healthcare, Uppsala, Sweden) to characterize BCL-2 inhibitors.
(§2) Biacore™ utilizes the phenomenon of surface plasmon resonance (SPR) to detect and measure binding interactions. In a typical Biacore experiment, one of the interacting molecules (ligand) is immobilized on a flexible dextran matrix while the interacting partner (analyte) is allowed to flow across that surface. A binding interaction results in an increase in mass on the sensor surface and a corresponding direct change in the refractive index of the medium in the vicinity of the sensor surface. Changes in refractive index or signal are recorded in resonance units (R.U.) Signal changes due to association and dissociation of complexes are monitored in a non-invasive manner, continuously and in real-time, the results of which are reported in the form of a sensorgram.
(§3) The SPR assay is configured to examine solution inhibition of BCL-2 binding to peptide derivatized sensor surfaces to generate IC50 values as a measure of inhibitor potency.
(§4) Biacore™ A100 (GE Healthcare, Uppsala, Sweden) was used to conduct all experiments reported herein. Sensor surface preparation and all interaction analyses experiments were performed at 25° C. Reagents were purchased from GE Healthcare. Running buffer containing 10 mM Hepes, pH7.4, 150 mM sodium chloride, 1.25 mM Dithiothreitol, 3% Dimethyl sulfoxide and 0.05% polysorbate 20 were utilized throughout all analyses.
(§5) Biotinylated BAK, BAD and NOXA peptides were diluted to 10 nM in running buffer and captured onto a sensor surface pre-derivatized with streptavidin (sensor chip SA) to peptide surface densities in the range 50-100 R.U. Peptide captured surfaces were blocked with 500 μM PEO2-Biotin.
(§6) Interaction analyses were performed by first equilibrating each sample within a 6 point three fold compound dilution series in the range 16 μM to […] with 56 nM BCL-2 for one hour during instrument start-up procedures. Protein compound mixtures were then injected over each peptide surface in parallel for 60 seconds at a flow-rate of 30 μL/min. 56 nM BCL-2 control samples were also prepared and run at regular intervals during the assay. Surface regeneration was performed at the end of each analysis cycle by two 30 second injections of 10 mM Glycine, pH 2.5, 1M Sodium Chloride, 0.05% polysorbate 20. Samples and control compound samples were run in duplicate and controls are also run at regular intervals during the assay to monitor surface and assay performance.
(§7) Data analyses are carried out using Biacore™ A100 evaluation software v1.1 to validate assay quality. Binding level report points were used relative to BCL-2 control samples to calculate % inhibition values for each compound protein mixture. […] The range of data shown in table 1 represents the high and low IC50 values obtained from multiple experiments.

[2] = molecular target: BCL-2 (binding to BAK peptide) (Homo sapiens, UniProt P10415); assay: SPR (Biacore) solution inhibition assay, BCL-2 binding to immobilized BAK peptide; settings: biotinylated BAK peptide surface, 56 nM BCL-2, 25° C.; range = high and low IC50 values from multiple experiments; read-out: BCL2_SPR IC50 BAK
Sequence of BCL-2 (binding to BAK peptide) (P10415 whole entry): as above
Description: as §1, §2, §3, §4, §5, §6, §7

CCCCN(CCCC)C(=O)c1cc(C)n(-c2ccc(NC(=O)C(C)(C)CC(=O)O)cc2C(=O)N2Cc3ccccc3C[C@H]2CO)n1 [Example 39]
IC50 [1]: 143 to 166 nM | IC50 [2]: 106 to 124 nM

CCCCN(CCCC)C(=O)c1cc(C)n(-c2ccc(NC(=O)C3CC(=O)N(Cc4ccccc4Cl)C3)cc2C(=O)N2Cc3ccccc3C[C@H]2CO)n1 (stereo partly shown) [Example 41]
IC50 [1]: 96.4 to 97.6 nM | IC50 [2]: 75.4 to 83.3 nM

CCCCN(CCCC)C(=O)c1cc(C)n(-c2ccc(NC(=O)CC(C(=O)O)c3ccccc3)cc2C(=O)N2Cc3ccccc3C[C@H]2CO)n1 (stereo partly shown) [Example 42]
IC50 [1]: 51.1 to 59.1 nM | IC50 [2]: 55 to 61.3 nM

CCCCN(CCCC)C(=O)c1cc(C)n(-c2ccc(NC(=O)c3cn4cc(Cl)ccc4n3)cc2C(=O)N2Cc3ccccc3C[C@H]2CO)n1 [Example 43]
IC50 [1]: 527 to 597 nM | IC50 [2]: 416 to 491 nM

CCCCN(CCCC)C(=O)c1cc(C)n(-c2ccc(NC(=O)c3ncoc3-c3ccccc3)cc2C(=O)N2Cc3ccccc3C[C@H]2CO)n1 [Example 44]
IC50 [1]: 273 to 284 nM | IC50 [2]: 236 to 238 nM

CCCCN(CCCC)C(=O)c1cc(C)n(-c2ccc(NC(=O)c3nn(C)c4ncccc34)cc2C(=O)N2Cc3ccccc3C[C@H]2CO)n1 [Example 45]
IC50 [1]: 689 to 773 nM | IC50 [2]: 499 to 556 nM

CCCCN(CCCC)C(=O)c1cc(C)n(-c2ccc(NC(=O)c3oc(-c4ccccc4)nc3C)cc2C(=O)N2Cc3ccccc3C[C@H]2CO)n1 [Example 46]
IC50 [1]: 628 to 760 nM | IC50 [2]: 692 to 840 nM

CCCCN(CCCC)C(=O)c1cc(C)n(-c2ccc(NC(=O)c3cc(C(C)C)nn3C)cc2C(=O)N2Cc3ccccc3C[C@H]2CO)n1 [Example 47]
IC50 [1]: 522 to 594 nM | IC50 [2]: 586 to 600 nM

CCCCC(CCCC)C(=O)c1cc(C)n(-c2ccc(NC(=O)COc3ccc(N4CCCC4=O)cc3)cc2C(=O)N2Cc3ccccc3C[C@H]2CO)n1 [Example 48]
IC50 [1]: 846 to 870 nM | IC50 [2]: 581 to 600 nM

CCCCN(CCCC)C(=O)c1cc(C)n(-c2ccc(NC(=O)C3CC(=O)N(Cc4ccc(F)cc4)C3)cc2C(=O)N2Cc3ccccc3C[C@H]2CO)n1 (stereo partly shown) [Example 50]
IC50 [1]: 702 to 723 nM | IC50 [2]: 554 to 643 nM

CCCCN(CCCC)C(=O)c1cc(C)n(-c2ccc(NC(=O)C3=CC(c4ccccc4)NC(=O)N3)cc2C(=O)N2Cc3ccccc3C[C@H]2CO)n1 (stereo partly shown) [Example 51]
IC50 [1]: 155 to 158 nM | IC50 [2]: 122 to 126 nM

CCCCN(CCCC)C(=O)c1cc(C)n(-c2ccc(NC(=O)[C@@H](C)c3ccccc3)cc2C(=O)N2Cc3ccccc3C[C@H]2CO)n1 [Example 52]
IC50 [1]: 84.2 to 88.5 nM | IC50 [2]: 75.5 to 79.1 nM

CCCCN(CCCC)C(=O)c1cc(C)n(-c2ccc(NC(=O)C(CC(=O)OCC)c3ccccc3)cc2C(=O)N2Cc3ccccc3C[C@H]2CO)n1 (stereo partly shown) [Example 53]
IC50 [1]: 181 to 187 nM | IC50 [2]: 162 nM

CCCCN(CCCC)C(=O)c1cc(C)n(-c2ccc(NC(=O)Cc3ccc4ccccc4c3)cc2C(=O)N2Cc3ccccc3C[C@H]2CN)n1 [Example 54]
IC50 [1]: 66.9 to 67.7 nM and 69.8 to 79.8 nM | IC50 [2]: 58.1 to 59.3 nM and 58.9 to 68.8 nM

CCCCN(CCCC)C(=O)c1cc(C)n(-c2ccc(NC(=O)C(CC(=O)NC)c3ccccc3)cc2C(=O)N2Cc3ccccc3C[C@H]2CO)n1 (stereo partly shown) [Example 55]
IC50 [1]: 100 to 129 nM | IC50 [2]: 81 to 110 nM

CCCCN(CCCC)C(=O)c1cc(C)n(-c2ccc(NC(=O)CCNC(C)=O)cc2C(=O)N2Cc3ccccc3C[C@H]2CO)n1 [Example 56]
IC50 [1]: 1090 nM | IC50 [2]: 722 to 725 nM

CCCCN(CCCC)C(=O)c1cc(C)n(-c2ccc(NC(=O)Cc3ccccc3F)cc2C(=O)N2Cc3ccccc3C[C@H]2CO)n1 [Example 57]
IC50 [1]: 77.3 to 79.6 nM | IC50 [2]: 63.1 to 66.9 nM

CCCCN(CCCC)C(=O)c1cc(C)n(-c2ccc(NC(=O)c3cn4ccccc4n3)cc2C(=O)N2Cc3ccccc3C[C@H]2CO)n1 [Example 58]
IC50 [1]: 249 to 282 nM | IC50 [2]: 204 to 205 nM

CCCCN(CCCC)C(=O)c1cc(C)n(-c2ccc(NC(=O)c3cc(=O)c4cc(C)ccc4o3)cc2C(=O)N2Cc3ccccc3C[C@H]2CO)n1 [Example 59]
IC50 [1]: 531 to 537 nM | IC50 [2]: 395 to 410 nM

CCCCN(CCCC)C(=O)c1cc(C)n(-c2ccc(NC(=O)CCc3nc(-c4ccccc4)no3)cc2C(=O)N2Cc3ccccc3C[C@H]2CO)n1 [Example 60]
IC50 [1]: 111 to 120 nM | IC50 [2]: 95.2 to 96.7 nM
